Substitutions are numbered along the chain they refer to.
Legend:
Test in all cases: α-Gal A activity in lysates of transfected HEK-293 cells ± migalastat (HEK assay)
Type in all cases: cell-based
[1] = target: T1, α-Gal A mutant form G411S (Homo sapiens, UniProt P06280, G411S)
T1 construct: expressed in transfected cells; host or cells: HEK-293
T1 sequence (P06280 32-429 G411S): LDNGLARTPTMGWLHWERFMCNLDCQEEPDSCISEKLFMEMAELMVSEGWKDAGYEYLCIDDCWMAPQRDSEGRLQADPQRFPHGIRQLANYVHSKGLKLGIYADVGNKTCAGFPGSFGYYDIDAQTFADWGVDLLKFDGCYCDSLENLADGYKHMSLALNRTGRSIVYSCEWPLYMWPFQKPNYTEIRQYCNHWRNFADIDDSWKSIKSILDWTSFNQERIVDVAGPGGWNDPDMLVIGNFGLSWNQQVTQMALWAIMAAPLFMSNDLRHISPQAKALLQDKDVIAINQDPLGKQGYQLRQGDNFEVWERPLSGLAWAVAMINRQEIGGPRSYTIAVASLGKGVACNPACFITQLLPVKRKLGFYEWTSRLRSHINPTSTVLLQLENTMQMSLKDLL
Source text: (§1) Such mutations or variants are also referred to herein as “HEK assay amenable” mutations or variants.
(§2) The α-Gal A activity is expressed as the nmoles of free 4-MU released per milligram of protein per hour (nmol/mg/hr).

[2] = target: T2, α-Gal A mutant form I303V (Homo sapiens, UniProt P06280, I303V)
T2 construct: expressed in transfected cells; host or cells: HEK-293
T2 sequence (P06280 32-429 I303V): T1 sequence (P06280 32-429 G411S) with I272V, S380G
Source text: as §1, §2

[3] = target: T3, α-Gal A mutant form A160D (Homo sapiens, UniProt P06280, A160D)
T3 construct: expressed in transfected cells; host or cells: HEK-293
T3 sequence (P06280 32-429 A160D): T1 sequence (P06280 32-429 G411S) with A129D, S380G
Source text: as §1, §2

[4] = target: T4, α-Gal A mutant form F169I (Homo sapiens, UniProt P06280, F169I)
T4 construct: expressed in transfected cells; host or cells: HEK-293
T4 sequence (P06280 32-429 F169I): T1 sequence (P06280 32-429 G411S) with F138I, S380G
Source text: as §1, §2

[5] = target: T5, α-Gal A mutant form L394P (Homo sapiens, UniProt P06280, L394P)
T5 construct: expressed in transfected cells; host or cells: HEK-293
T5 sequence (P06280 32-429 L394P): T1 sequence (P06280 32-429 G411S) with L363P, S380G
Source text: as §1, §2

[6] = 10 μM migalastat minus baseline
[7] = HEK-293 lysates, 10 μM migalastat 5 days, mean ± SEM

In the case of `OC[C@H]1NC[C@H](O)[C@@H](O)[C@H]1O` [migalastat, (2R,3S,4R,5S)-2-(hydroxymethyl) piperdine-3,4,5-triol], the “Absolute increase (% WT)” value [1, 6] is reported as 22 % WT, the Relative increase ([1]; 10 μM migalastat ÷ baseline) is reported as 1.58 and the “10 μM migalastat α-Gal A activity” value [1, 7] is reported as 17543 ± 867 nmol/mg/h. The “10 μM migalastat α-Gal A activity (% WT)” value [1, 7] was 61.1 ± 3.2 % WT, the “Absolute increase (% WT)” value [2, 6] was 35 % WT and the Relative increase ([2]; 10 μM migalastat ÷ baseline) was 1.91. For the same compound, the “10 μM migalastat α-Gal A activity” value [2, 7] was 28958 ± 3153 nmol/mg/h, the “10 μM migalastat α-Gal A activity (% WT)” value [2, 7] was 73.2 ± 8.8 % WT and the “Absolute increase (% WT)” value [3, 6] was 25.9 % WT. The Relative increase ([3]; 10 μM migalastat ÷ baseline) was 1.83, the “10 μM migalastat α-Gal A activity” value [3, 7] was 18238 ± 1048 nmol/mg/h and the “10 μM migalastat α-Gal A activity (% WT)” value [3, 7] was 56 ± 4.1 % WT. For the same compound, the “Absolute increase (% WT)” value [4, 6] was 35.9 % WT, the Relative increase ([4]; 10 μM migalastat ÷ baseline) was 3.44 and the “10 μM migalastat α-Gal A activity” value [4, 7] was 15903 ± 567 nmol/mg/h. For the same compound, the “10 μM migalastat α-Gal A activity (% WT)” value [4, 7] was 51.7 ± 2.2 % WT, the “Absolute increase (% WT)” value [5, 6] was 7.2 % WT and the Relative increase ([5]; 10 μM migalastat ÷ baseline) was 1.52. The “10 μM migalastat α-Gal A activity” value [5, 7] was 7749 ± 582 nmol/mg/h and the “10 μM migalastat α-Gal A activity (% WT)” value [5, 7] was 22.3 ± 2.4 % WT.
